Measured values as given in patent US10836725B2, “Modulators of the integrated stress pathway” (Calico Life Sciences LLC, priority 2016, dated 2020).

Test system: ATF4 luciferase reporter
Assay: ATF4-Luc assay in HEK293T cells carrying the ATF4 luciferase reporter (in vitro model of VWMD)
Type: cell-based, human
Details: Homo sapiens, HEK-293T, 1 μg/mL tunicamycin, 7 hours, luminescence (One Glo)
Protocol: In order to test exemplary compounds of the invention in a cellular context, a stable VWMD cell line was first constructed. The ATF4 reporter was prepared by fusing the human full-length ATF4 5′-UTR (NCBI Accession No. BC022088.2) in front of the firefly luciferase (FLuc) coding sequence lacking the initiator methionine as described in Sidrauski et al (eLife 2013). The construct was used to produce recombinant retroviruses using standard methods and the resulting viral supernatant was used to transduce HEK293T cells, which were then subsequently selected with puromycin to generate a stable cell line.
HEK293T cells carrying the ATF4 luciferase reporter were plated on polylysine coated 384-well plates (Greiner Bio-one) at 30,000 cells per well. Cells were treated the next day with 1 μg/mL tunicamycin and 200 nM of a compound of Formula (I) for 7 hours. Luminescence was measured using One Glo (Promega) as specified by the manufacturer. Cells were maintained in DMEM with L-glutamine supplemented with 10% heat-inactivated FBS (Gibco) and Antibiotic-Antimycotic solution (Gibco).
Table 2 below summarizes the EC50 data obtained using the ATF4-Luc assay for exemplary compounds of the invention.

| SMILES | EC50 |
| --- | --- |
| CN(Cc1ccc(C(F)(F)F)cc1)C(=O)C12CCC(NC(=O)COc3ccc(Cl)c(F)c3)(CC1)CC2O (stereo not shown) [Compound 145, 4-[2-(4-chloro-3-fluorophenoxy)acetamido]-2-hydroxy-N-methyl-N-{[4-(trifluoromethyl)phenyl]methyl}bicyclo[2.2.2]octane-1-carboxamide] | < 250 nM |
| O=C(COc1ccc(Cl)c(F)c1)NC12CC(C(=O)NCc3ccc(OC(F)F)cn3)(C1)C2 [Compound 147, 3-[2-(4-chloro-3-fluorophenoxy)acetamido]-N-{[5-(difluoromethoxy)pyridin-2-yl]methyl}bicyclo[1.1.1]pentane-1-carboxamide] | 250 to 500 nM |
| O=C(COc1ccc(Cl)c(Cl)c1)NC12CC(C(=O)NCc3ccc(OC(F)F)cn3)(C1)C2 [Compound 148, 3-[2-(3,4-dichlorophenoxy)acetamido]-N-{[5-(difluoromethoxy)pyridin-2-yl]methyl}bicyclo[1.1.1]pentane-1-carboxamide] | < 250 nM |
| O=C(COc1ccc(Cl)c(F)c1)NC12CC(C(=O)NCc3ccc(C(F)(F)F)nc3)(C1)C2 [Compound 149, 3-[2-(4-chloro-3-fluorophenoxy)acetamido]-N-{[6-(trifluoromethyl)pyridin-3-yl]methyl}bicyclo[1.1.1]pentane-1-carboxamide] | 250 to 500 nM |
| O=C(COc1ccc(Cl)c(Cl)c1)NC12CC(C(=O)NCc3ccc(C(F)(F)F)nc3)(C1)C2 [Compound 150, 3-[2-(3,4-dichlorophenoxy)acetamido]-N-{[6-(trifluoromethyl)pyridin-3-yl]methyl}bicyclo[1.1.1]pentane-1-carboxamide] | < 250 nM |
| Cc1cc(CNC(=O)C23CC(NC(=O)COc4ccc(Cl)c(F)c4)(C2)C3)n(C)n1 [Compound 151, 3-[2-(4-chloro-3-fluorophenoxy)acetamido]-N-[(1,3-dimethyl-1H-pyrazol-5-yl)methyl]bicyclo[1.1.1]pentane-1-carboxamide] | > 2000 nM |
| Cc1nn(C)cc1CNC(=O)C12CC(NC(=O)COc3ccc(Cl)c(F)c3)(C1)C2 [Compound 152, 3-[2-(4-chloro-3-fluorophenoxy)acetamido]-N-[(1,3-dimethyl-1H-pyrazol-4-yl)methyl]bicyclo[1.1.1]pentane-1-carboxamide] | > 2000 nM |
| O=C(COc1ccc(Cl)c(F)c1)NC12CC(C(=O)NCCc3ccccn3)(C1)C2 [Compound 153, 3-[2-(4-chloro-3-fluorophenoxy)acetamido]-N-[2-(pyridin-2-yl)ethyl]bicyclo[1.1.1]pentane-1-carboxamide] | > 2000 nM |
| Cc1cc(CNC(=O)C23CC(NC(=O)COc4ccc(Cl)c(Cl)c4)(C2)C3)n(C)n1 [Compound 154, 3-[2-(3,4-dichlorophenoxy)acetamido]-N-[(1,3-dimethyl-1H-pyrazol-5-yl)methyl]bicyclo[1.1.1]pentane-1-carboxamide] | > 2000 nM |
| Cc1ccc(CNC(=O)C23CC(NC(=O)COc4ccc(Cl)c(F)c4)(C2)C3)cn1 [Compound 155, 3-[2-(4-chloro-3-fluorophenoxy)acetamido]-N-[(6-methylpyridin-3-yl)methyl]bicyclo[1.1.1]pentane-1-carboxamide] | > 2000 nM |
| O=C(COc1ccc(Cl)c(F)c1)NC12CC(C(=O)NCc3ccc(C(F)(F)F)cc3)(C1)C2 [Compound 156, 3-[2-(4-chloro-3-fluorophenoxy)acetamido]-N-{[4-(trifluoromethyl)phenyl]methyl}bicyclo[1.1.1]pentane-1-carboxamide] | < 250 nM |
| COc1ccc(CNC(=O)C23CC(NC(=O)COc4ccc(Cl)c(F)c4)(C2)C3)cn1 [Compound 157, 3-[2-(4-chloro-3-fluorophenoxy)acetamido]-N-[(6-methoxypyridin-3-yl)methyl]bicyclo[1.1.1]pentane-1-carboxamide] | > 2000 nM |
| Cc1ccc(OCCNC(=O)C23CC(NC(=O)COc4ccc(Cl)c(F)c4)(C2)C3)cc1C [Compound 158, 3-[2-(4-chloro-3-fluorophenoxy)acetamido]-N-[2-(3,4-dimethylphenoxy)ethyl]bicyclo[1.1.1]pentane-1-carboxamide] | < 250 nM |
| Cc1noc(CNC(=O)C23CC(NC(=O)COc4ccc(Cl)c(F)c4)(C2)C3)n1 [Compound 159, 3-[2-(4-chloro-3-fluorophenoxy)acetamido]-N-[(3-methyl-1,2,4-oxadiazol-5-yl)methyl]bicyclo[1.1.1]pentane-1-carboxamide] | > 2000 nM |
| Cc1cc(CNC(=O)C23CC(NC(=O)COc4ccc(Cl)c(F)c4)(C2)C3)c(C)o1 [Compound 160, 3-[2-(4-chloro-3-fluorophenoxy)acetamido]-N-[(2,5-dimethylfuran-3-yl)methyl]bicyclo[1.1.1]pentane-1-carboxamide] | > 2000 nM |
| O=C(COc1ccc(Cl)c(F)c1)NC12CC(C(=O)NCc3cccc(OC(F)(F)F)c3)(C1)C2 [Compound 161, 3-[2-(4-chloro-3-fluorophenoxy)acetamido]-N-{[3-(trifluoromethoxy)phenyl]methyl}bicyclo[1.1.1]pentane-1-carboxamide] | > 2000 nM |

Continued, values first:

| EC50 | SMILES |
| --- | --- |
| 250 to 500 nM | O=C(COc1ccc(Cl)c(F)c1)NC12CCC(C(=O)NCc3cccc(Cl)c3)(CC1)C(O)C2 (stereo not shown) [Compound 131, 4-[2-(4-chloro-3-fluorophenoxy)acetamido]-N-[(3-chlorophenyl)methyl]-2-hydroxybicyclo[2.2.2]octane-1-carboxamide] |
| < 250 nM | O=C(COc1ccc(Cl)c(F)c1)NC12CCC(C(=O)NCc3ccc(Cl)cc3)(CC1)C(O)C2 (stereo not shown) [Compound 132, 4-[2-(4-chloro-3-fluorophenoxy)acetamido]-N-[(4-chlorophenyl)methyl]-2-hydroxybicyclo[2.2.2]octane-1-carboxamide] |
| < 250 nM | O=C(COc1ccc(Cl)c(F)c1)NC12CCC(C(=O)NCc3ccc(OC(F)(F)F)cc3)(CC1)C(O)C2 (stereo not shown) [Compound 133, 4-[2-(4-chloro-3-fluorophenoxy)acetamido]-2-hydroxy-N-{[4-(trifluoromethoxy)phenyl]methyl}bicyclo[2.2.2]octane-1-carboxamide] |
| < 250 nM | CN(C)c1ccc(CNC(=O)C23CCC(NC(=O)COc4ccc(Cl)c(F)c4)(CC2)CC3O)cc1 (stereo not shown) [Compound 134, 4-[2-(4-chloro-3-fluorophenoxy)acetamido]-N-{[4-(dimethylamino)phenyl]methyl}-2-hydroxybicyclo[2.2.2]octane-1-carboxamide] |
| < 250 nM | O=C(COc1ccc(Cl)c(F)c1)NC12CCC(C(=O)NCc3cccc(C(F)(F)F)c3)(CC1)C(O)C2 (stereo not shown) [Compound 135, 4-[2-(4-chloro-3-fluorophenoxy)acetamido]-2-hydroxy-N-{[3-(trifluoromethyl)phenyl]methyl}bicyclo[2.2.2]octane-1-carboxamide] |
| 500 to 1000 nM | O=C(COc1ccc(Cl)c(F)c1)NC12CCC(C(=O)NCc3cccc(OC(F)(F)F)c3)(CC1)C(O)C2 (stereo not shown) [Compound 136, 4-[2-(4-chloro-3-fluorophenoxy)acetamido]-2-hydroxy-N-{[3-(trifluoromethoxy)phenyl]methyl}bicyclo[2.2.2]octane-1-carboxamide] |
| 500 to 1000 nM | CC(C)(C)c1ccc(CNC(=O)C23CCC(NC(=O)COc4ccc(Cl)c(F)c4)(CC2)CC3O)cc1 (stereo not shown) [Compound 137, N-[(4-tert-butylphenyl)methyl]-4-[2-(4-chloro-3-fluorophenoxy)acetamido]-2-hydroxybicyclo[2.2.2]octane-1-carboxamide] |
| < 250 nM | O=C(COc1ccc(Cl)c(F)c1)NC12CCC(C(=O)NCCc3ccc(C(F)(F)F)cc3)(CC1)C(O)C2 (stereo not shown) [Compound 138, 4-[2-(4-chloro-3-fluorophenoxy)acetamido]-2-hydroxy-N-{2-[4-(trifluoromethyl)phenyl]ethyl}bicyclo[2.2.2]octane-1-carboxamide] |
| 1000 to 2000 nM | O=C(COc1ccc(Cl)c(F)c1)NC12CCC(C(=O)NCc3ccccn3)(CC1)C(O)C2 (stereo not shown) [Compound 139] |
| > 2000 nM | CC(NC(=O)C12CCC(NC(=O)COc3ccc(Cl)c(F)c3)(CC1)CC2O)c1cccnc1 (stereo not shown) [Compound 140, 4-[2-(4-chloro-3-fluorophenoxy)acetamido]-2-hydroxy-N-[1-(pyridin-3-yl)ethyl]bicyclo[2.2.2]octane-1-carboxamide] |
| < 250 nM | N#Cc1ccc(CNC(=O)C23CCC(NC(=O)COc4ccc(Cl)c(F)c4)(CC2)CC3O)nc1 (stereo not shown) [Compound 141, 4-[2-(4-chloro-3-fluorophenoxy)acetamido]-N-[(5-cyanopyridin-2-yl)methyl]-2-hydroxybicyclo[2.2.2]octane-1-carboxamide] |
| 500 to 1000 nM | Cc1ccc(CNC(=O)C23CCC(NC(=O)COc4ccc(Cl)c(F)c4)(CC2)CC3O)nc1 (stereo not shown) [Compound 142, 4-[2-(4-chloro-3-fluorophenoxy)acetamido]-2-hydroxy-N-[(5-methylpyridin-2-yl)methyl]bicyclo[2.2.2]octane-1-carboxamide] |
| < 250 nM | Cc1ccnc(CNC(=O)C23CCC(NC(=O)COc4ccc(Cl)c(F)c4)(CC2)CC3O)c1 (stereo not shown) [Compound 143, 4-[2-(4-chloro-3-fluorophenoxy)acetamido]-2-hydroxy-N-[(4-methylpyridin-2-yl)methyl]bicyclo[2.2.2]octane-1-carboxamide] |
| > 2000 nM | O=C(COc1ccc(Cl)c(F)c1)NC12CCC(C(=O)NCc3cnccn3)(CC1)C(O)C2 (stereo not shown) [Compound 144] |
| < 250 nM | O=C(COc1ccc(Cl)c(F)c1)NC12CCC(C(=O)NCc3ccc(OC(F)F)cn3)(CC1)C(O)C2 (stereo not shown) [Compound 146, 4-[2-(4-chloro-3-fluorophenoxy)acetamido]-N-{[5-(difluoromethoxy)pyridin-2-yl]methyl}-2-hydroxybicyclo[2.2.2]octane-1-carboxamide] |
